The target of assay [1] is T1, Duffy Antigen Receptor for Chemokines (DARC) (Homo sapiens, UniProt Q16570).
T1 sequence (Q16570 1-336): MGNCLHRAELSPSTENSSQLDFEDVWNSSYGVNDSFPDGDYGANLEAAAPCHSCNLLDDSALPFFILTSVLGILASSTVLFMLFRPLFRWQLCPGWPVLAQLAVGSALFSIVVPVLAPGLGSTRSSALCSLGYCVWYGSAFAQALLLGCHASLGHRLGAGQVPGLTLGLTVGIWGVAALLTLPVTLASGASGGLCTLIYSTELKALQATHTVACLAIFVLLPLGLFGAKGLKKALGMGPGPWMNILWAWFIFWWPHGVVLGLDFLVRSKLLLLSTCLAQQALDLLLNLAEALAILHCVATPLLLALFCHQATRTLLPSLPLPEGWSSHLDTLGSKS
Briefly: DARC binding: competition with 125I-MCP-1 on red blood cells. The settings on record: for DARC binding (µM): ns = not significantly different from control, >100 = not determined.

Assay [2] has as its system MCP-1 induced THP-1 migration. Nature of the assay: THP-1 trans-well migration assay, MCP-1 as chemoattractant. The class given is cell-based, human. The settings on record: for ED50 v MCP-1: MCP-1 induced chemotaxis of THP-1 cells; for % inhibition at 100 µM versus MCP-1: THP-1 migration, agent at 100 µM with the cells, n.s. or dash = no statistically significant inhibition; for ED50 (µM) versus MCP-1: inhibition of THP-1 migration, n.s./ns = not statistically significant. The method, then: (§1) To determine whether an agent inhibits a chemokine-induced activity, such as macrophage recruitment, varying amounts of the agent are mixed with cells in the presence of a known chemoattractant. For example, a range of known concentrations of an agent, e.g., a chemokine peptide, is incubated with a defined number (e.g., 10^4 - […]) of human THP-1 monocyte cells in individual wells of the top compartment of a trans-well plate. Chemokine (such as MCP-1, MIP1α, IL8 or SDF-1α), at a concentration known to cause significant migration of THP-1 cells in the trans-well migration assay, is placed in the lower compartment (Figure 1). Cells are then incubated at 37°C for a period sufficient to allow migration, e.g., 4 hours. After incubation, the cells are gently removed from the top of the filter with a pipette, 20 µl of 20 mM EDTA in simple PBS is added into each top well, and incubated for 20 minutes at 4°C. The filter is carefully flushed with media using a gentle flow, and removed. A standard curve consisting of a two-fold dilution series of THP-1 cells (in 29 µl) is prepared to accurately quantify the number of cells that have migrated. Migrated cells are stained with 3 µl of MTT stock dye solution which is added directly into each well (5 mg/ml in RPMI-1640 without phenol red, Sigma Chemical Co.) and incubated at 37°C for 4 hours. The media is carefully aspirated from each well, and the converted dye is solubilized by 20 µl of DMSO. Absorbance of converted dye is measured at a wavelength of 595 nm using an ELISA plate reader. The number of migrated cells in each well is then determined by interpolation of the standard curve (see also Imai et al.,J. Biol. Chem., 272, 15036 (1997)).
Any method suitable for counting cells can be used, for example, counting with a hemocytometer, incubation of the cells with MTT (see above), or FACS analysis. A negative control assay is also performed, using TGF-β or another non-chemokine chemoattractant (e.g., IL1β or TNFα). To assess whether the agent is cytotoxic, the same concentrations of agent are incubated with THP-1 cells. Agents which 1) are not cytotoxic at levels which inhibit migration, 2) are ineffective at inhibiting the negative control-induced migration, and 3) reduce or inhibit chemokine-induced THP-1 migration, are agents which fall within the scope of the invention.
For this assay, THP-1 cells were maintained at a density of 4 × 10^5 cells per ml in RPMI-1640 supplemented with 10% fetal calf serum + 20 µM 2-mercaptoethanol. Chemotaxis was induced in a 96-well disposable chemotaxis chamber fitted with a 5 µM polycarbonate filter (PVP free, ChemoTX, Neuroprobe Inc., Cabin John). […] The framed filter was aligned with the holes in the corner of the filter frame and placed over the wells.
(§2) Five × 10^4 THP-1 cells in 25 µl of RPMI-1640 were added to the upper compartment. Peptides were dissolved in Milli Q water and then serially diluted in culture medium. In most cases, the serially diluted peptides were added to the upper compartment of the chemotaxis chamber. The chamber was incubated at 37°C in a humidified atmosphere of 5% CO2 for 4 hours.
After incubation, the cells were gently removed from the top of the filter with a pipette, 20 µl of 20 mM EDTA in PBS was added into each top well, and the mixture was incubated for 20 minutes at 4°C. The filter was then carefully flushed with media using a gentle flow, and removed. A standard curve was prepared to accurately quantify the number of THP-1 cells that had migrated. The curve was based on a two-fold dilution series of THP-1 cells (top standard 100,000 cells in 29 µl). Cells which had migrated, and in separate wells, the cells in the standards, were stained with 3 µl of MTT stock solution which was added directly into each well (5 mg/ml in RPMI 1640 without phenol red, Sigma Chemical Co.) and incubated at 37°C for 4 hours. The media was carefully aspirated from each well, and the converted dye was solubilized by 20 µl of DMSO. […]

Assay [3] has as its system SDF-1α induced THP-1 migration. Nature of the assay: THP-1 trans-well migration assay, SDF-1α as chemoattractant. Format: cell-based, human. As to conditions: for ED50 (µM) versus SDF-1α: inhibition of THP-1 migration, n.s./ns = not statistically significant. On the procedure:
as §1
(§3) For this assay, THP-1 cells were maintained at a density of 4 × 10^5 cells per ml in RPMI-1640 supplemented with 10% fetal calf serum + 20 µM 2-mercaptoethanol. Chemotaxis was induced in a 96-well disposable chemotaxis chamber fitted with a 5 µM polycarbonate filter (PVP free, ChemoTX, Neuroprobe Inc., Cabin John). Twenty-nine µl of chemoattractant (recombinant human chemokine; 50 ng/ml, i.e., 5.9 nM) or control (100 ng/ml TGFβ) was added to the lower compartment of each well. The framed filter was aligned with the holes in the corner of the filter frame and placed over the wells.
as §2
(§4) After incubation, the cells were gently removed from the top of the filter with a pipette, 20 µl of 20 mM EDTA in PBS was added into each top well, and the mixture was incubated for 20 minutes at 4°C. The filter was then carefully flushed with media using a gentle flow, and removed. A standard curve was prepared to accurately quantify the number of THP-1 cells that had migrated. The curve was based on a two-fold dilution series of THP-1 cells (top standard 100,000 cells in 29 µl). Cells which had migrated, and in separate wells, the cells in the standards, were stained with 3 µl of MTT stock solution which was added directly into each well (5 mg/ml in RPMI 1640 without phenol red, Sigma Chemical Co.) and incubated at 37°C for 4 hours. The media was carefully aspirated from each well, and the converted dye was solubilized by 20 µl of DMSO. Absorbance of converted dye was measured at a wavelength of 595 nm using an ELISA plate reader. The number of cells that had migrated in each well was determined by interpolation of the standard curve.
(§5) To investigate the receptor specificity of peptide 3 inhibition, the ED50 was determined for peptide 3(1-12)[MCP-1] (SEQ ID NO:1) inhibition of THP-1 migration induced by chemokines which signal through different receptors than MCP-1 receptors. […]

Assay [4] deals with MIP1α induced THP-1 migration. Briefly: THP-1 trans-well migration assay, MIP1α as chemoattractant. Format: cell-based, human. The settings on record: for ED50 (µM) versus MIP1α: inhibition of THP-1 migration, n.s./ns = not statistically significant. The method, then:
as §1, §3, §2, §4, §5

The mark [5] stands for this setting: THP-1 migration, agent at 100 µM, n.s. or dash = no statistically significant inhibition.

Positions of bridges follow the written chain, without caps; N, C: chain ends. Non-standard residues stand in square brackets, D forms with d. Residues, ends and D or L forms follow the SMILES beside them. No end group written: not given here.

Here are results for four compounds from patent EP2386565A2, “Compounds and methods to inhibit or augment an inflammatory response” (Cambridge Enterprise Ltd., priority 1999, dated 2000).

`CC[C@@H](C)[C@H]1NC(=O)[C@@H](CCC(N)=O)NC(=O)[C@H](N)CSSC[C@H](C(N)=O)NC(=O)[C@@H](CC(C)C)NC(=O)[C@@H](CC(=O)O)NC(=O)[C@H]2CCCN2C(=O)[C@@H](CCCCN)NC(=O)[C@@H](CCC(N)=O)NC(=O)[C@@H](CCCCN)NC(=O)[C@@H](Cc2c[nH]c3ccccc23)NC1=O` (H-[dC][dQ][dI][dW][dK][dQ][dK][dP][dD][dL][dC]-NH2; disulfide 1-11): the “Duffy selectivity / DARC specificity ratio” value in assay [1] (estimated ka for binding to red blood cells divided by average inhibitory ED50) is > 100. Besides, the “potency as inhibitor of THP-1 migration induced by MCP-1 relative to the D-ala derivative” value in assay [2] was 1000 fold. Moreover, the figures for the “ED50 v MCP-1” value in assay [2] (listed as CRD-Cys13Leu4Ile11peptide 3(3-12)[MCP-1]) and in assay [2] (listed as NR58-3.14.3) were 1 to 10 nM and 10 nM, respectively.

Turning to `CC[C@H](C)[C@H](NC(=O)[C@H](C)NC(=O)[C@H](CC(=O)O)NC(=O)[C@@H]1CCCN1C(=O)[C@H](CCC(N)=O)NC(=O)[C@H](C)N)C(=O)N[C@@H](CC(N)=O)C(=O)N[C@@H](C)C(=O)N1CCC[C@H]1C(=O)N[C@H](C(=O)N[C@H](C(=O)N[C@@H](CS)C(=O)N[C@@H](CS)C(=O)O)[C@@H](C)O)C(C)C` [Peptide 1] (H-AQPDAINAPVTCC-OH; N-terminus and C-terminus assumed), the “% inhibition at 100 µM versus SDF-1α” value in assay [3] (setting [5]) is “n.s”. Further, the “ED50 (µM) versus SDF-1α” value in assay [3] was “n.s”. Moreover, the “% inhibition at 100 µM versus MIP1α” value in assay [4] (setting [5]) is recorded as “n.s.^b”. For the same compound, the “ED50 (µM) versus MIP1α” value in assay [4] was “n.s.^b”. For the same compound, the results for the “% inhibition at 100 µM versus MCP-1” value in assay [2], in assay [2] (listed as Peptide 1[MCP-1]) and in assay [2] (listed as peptide 1[MCP-1]) were “n.s.^b”, 10% and 10%, respectively. For the same compound, the “ED50 (µM) versus MCP-1” value is on record as “n.s.^b” in assay [2] and > 100 µM in assay [2] (listed as Peptide 1[MCP-1]). Besides, the “% inhibition of the MCP-1 induced migration at 100 µM” value in assay [2] (peptide introduced with the chemokine in the lower compartment) turned out to be 48%.

Consider “=cvaekpsksstirrysc= ([dC][dV][dA][dE][dK][dP][dS][dK][dS][dS][dT][dI][dR][dR][dY][dS][dC]; bridge 1-17 (inferred); not fully specified; printed as =cvaekpsksstirrysc=)”, for which the “ED50 (µM) versus SDF-1α” value in assay [3] is on record as “ns”. The “DARC binding (µM)” value in assay [1] is given as “ns”. In assay [4], the “ED50 (µM) versus MIP1α” value is listed as “ns”. In addition, in assay [2], the “ED50 (µM) versus MCP-1” value was “ns”.

Turning to CSYRRITSSKSPKEAVC, the “ED50 (µM) versus SDF-1α” value in assay [3] is on record as “ns”. Moreover, the “DARC binding (µM)” value in assay [1] is “ns”. Further, the “ED50 (µM) versus MIP1α” value in assay [4] is recorded as “ns”. Further, the “ED50 (µM) versus MCP-1” value in assay [2] is listed as “ns”.
